Test results published in ChEMBL document CHEMBL1125625, “Antinociceptive (aminoalkyl)indoles” (J Med Chem, 1991).

Columns and labels:
Assay type in all cases: functional
[1] = system: Mus musculus; experiment: Acetylcholine writhing inhibitory activity for the compound was measured in mouse (in vivo) by peroral administration at 1000 uM
[2] = system: Mus musculus; experiment: Acetylcholine writhing inhibitory activity was measured in mouse (in vivo) by iv administration
[3] = system: Mus musculus; experiment: Acetylcholine writhing inhibitory activity for the compound was measured in vivo in mouse by peroral administration at 20 uM
[4] = system: Mus musculus; experiment: Acetylcholine writhing inhibitory activity measured in vivo in mouse by peroral administration; settings: po
[5] = system: Mus musculus; experiment: Acetylcholine writhing inhibitory activity for the compound was measured in mouse (in vivo) by iv administration at 30 uM
[6] = system: Mus musculus; experiment: Acetylcholine writhing inhibitory activity for the compound was measured in vivo in mouse by peroral administration at 238 uM
[7] = system: Mus musculus; experiment: Acetylcholine writhing inhibitory activity for the compound was measured in vivo in mouse by peroral administration at 300 uM
[8] = system: Rattus norvegicus; experiment: Acetic acid writhing inhibitory activity for the compound was measured in rat (in vivo) by peroral administration; settings: po
[9] = system: Rattus norvegicus; experiment: Intra arterial bradykinin activity for the compound was measured in rat (in vivo) by peroral administration
[10] = system: Rattus norvegicus; experiment: Adjuvant arthritis paw flexion activity for the compound was measured in rat (in vivo) by peroral administration; settings: po
[11] = system: Mus musculus; experiment: Acetylcholine writhing inhibitory activity for the compound was measured in vivo in mouse by peroral administration at 100 uM
[12] = system: Rattus norvegicus; experiment: Randall-Selitto activity for the compound was measured in rat (in vivo) by peroral administration; settings: po, read-out: MED

SMILES: Cc1c(C(=O)c2cccc3ccccc23)c2ccccc2n1CCN1CCOC(O)C1 (stereo unspecified)
- Inhibition [1]: 50%
- ED50 [2]: 9.7 mg/kg

SMILES: Cc1cccc(C(=O)c2c(C)n(CCN3CCOCC3)c3ccccc23)c1
- Inhibition [3]: 20%

SMILES: CSc1ccc(C(=O)c2c(C)n(CCN3CCOCC3)c3ccccc23)cc1
- ED50 [4]: 22 mg/kg

SMILES: COc1ccc(C(=O)c2c(C)n(CCN3CCNCC3)c3ccccc23)cc1
- ED50 [4]: 21 mg/kg

SMILES: O=C(c1cccc2ccccc12)c1cn(CCN2CCOCC2)c2ccccc12
- ED50 [2]: 0.12 mg/kg
- ED50 [4]: 23 mg/kg

SMILES: COc1ccc(C(=O)c2c(C)n(CCN3CCCC(O)C3)c3ccccc23)cc1 (stereo unspecified)
- ED50 [4]: 26 mg/kg

SMILES: COc1ccc(C(=O)c2c(C)n(CCN(C)C)c3ccccc23)cc1
- ED50 [4]: 65 mg/kg

SMILES: CC(C(=O)O)n1cc(C(=O)c2ccccc2F)c2ccccc21 (stereo unspecified)
- ED50 [4]: 8 mg/kg

SMILES: Cc1c(C(=O)c2csc3ccccc23)c2ccccc2n1CCN1CCOCC1
- Inhibition [5]: 60%

SMILES: COc1ccc(C(=O)c2c(C)n(CCN3CCC(O)CC3)c3ccccc23)cc1
- ED50 [4]: 68 mg/kg

SMILES: Cc1c(C(=O)c2ccccc2F)c2ccccc2n1C(C)C(=O)O (stereo unspecified)
- ED50 [4]: 12 mg/kg

SMILES: CC(CN1CCOCC1)n1cc(C(=O)c2ccccc2F)c2ccccc21 (stereo unspecified)
- ED50 [4]: 19 mg/kg

SMILES: Cc1c(C(=O)c2ccc(F)cc2)c2ccccc2n1CCN1CCOCC1
- Inhibition [6]: 60%

SMILES: COc1ccc(C(=O)c2c(C)n(CCN3CCCCC3)c3ccccc23)cc1
- Inhibition [7]: 71%

SMILES: Cc1c(C(=O)c2ccccc2F)c2ccccc2n1[C@H](C)CN1CCOCC1
- ED50 [4]: 9 mg/kg

SMILES: C[C@@H](C(=O)O)n1cc(C(=O)c2ccccc2F)c2ccccc21
- ED50 [2]: 38 mg/kg

SMILES: C[C@H](CN1CCOCC1)n1cc(C(=O)c2ccccc2F)c2ccccc21
- ED50 [4]: 11 mg/kg

SMILES: C[C@H](C(=O)O)n1cc(C(=O)c2ccccc2F)c2ccccc21
- ED50 [2]: 5 mg/kg

SMILES: C[C@@H](CN1CCOCC1)n1cc(C(=O)c2ccccc2F)c2ccccc21
- ED50 [4]: 48 mg/kg

SMILES: CCNCCn1c(C)c(C(=O)c2ccc(OC)cc2)c2ccccc21
- ED50 [4]: 46 mg/kg

SMILES: CCc1c(C(=O)c2ccc(OC)cc2)c2ccccc2n1CCN1CCOCC1
- ED50 [4]: 82 mg/kg

SMILES: COc1ccc(C(=O)c2c(C)n(CCCCCCN3CCOCC3)c3ccccc23)cc1
- ED50 [4]: 28 mg/kg

SMILES: Cc1c(C(=O)c2cccc3ccccc23)c2ccccc2n1CCN1CCOCC1
- ED50 [8]: 38 mg/kg
- ED50 [2]: 0.19 mg/kg
- ED50 [9]: 52 mg/kg
- ED50 [10]: 30 mg/kg

SMILES: COc1ccc(C(=O)c2c(C)n(CC(=O)O)c3ccccc23)cc1
- ED50 [4]: 173 mg/kg

SMILES: CCN(CC)CCn1c(C)c(C(=O)c2ccc(OC)cc2)c2ccccc21
- ED50 [4]: 50 mg/kg

SMILES: Cc1c(C(=O)c2ccccc2F)c2ccccc2n1[C@@H](C)CN1CCOCC1
- ED50 [4]: 37 mg/kg

SMILES: Cc1c(C(=O)c2cccc(F)c2)c2ccccc2n1CCN1CCOCC1
- Inhibition [11]: 30%

SMILES: COc1ccc(C(=O)c2c(C)n(CCCCCN3CCOCC3)c3ccccc23)cc1
- ED50 [4]: 15 mg/kg

SMILES: Cc1c(C(=O)c2ccccc2F)c2ccccc2n1CCN1CCOCC1
- ED50 [4]: 79 mg/kg

SMILES: COc1ccc(C(=O)c2c(C)n(CCCCN3CCOCC3)c3ccccc23)cc1
- ED50 [4]: 56 mg/kg

SMILES: O=C(c1ccccc1)c1ccc2n1CCC2C(=O)O (stereo unspecified) [KETOROLAC]
- ED50 [4]: 1.1 mg/kg

SMILES: COc1ccc(C(=O)c2c(C)n(CCN3CCOCC3)c3ccccc23)cc1 [PRAVADOLINE]
- ED50 [8]: 15 mg/kg
- ED50 [9]: 120 mg/kg
- ED50 [4]: 41 mg/kg
- ED50 [10]: 100 mg/kg
- minimal effective dose [12]: 1 mg/kg
